Assay results: ChEMBL document CHEMBL1201862, “PubChem BioAssay data set” (2004)
Active and inactive are the calls of the source.

Key:
[1] = Luminescence Cell-Based Dose Confirmation HTS to Identify Activators of 5'UTR Stem-Loop Driven Alpha-Synuclein mRNA Translation in H4 Neuroglioblastoma Cells. [Related pubchem assays: 1829 (Project Summary), 1814 (Primary HTS)]; assay type: functional
[2] = Luminescence Cell-Based Dose Response HTS to Identify Activators of Luciferase Translation or Activity in H4 […] Cells. [Related pubchem assays: 1829 (Project Summary), 1814 (Primary HTS)]; assay type: functional
[3] = system: H4; experiment: Luminescence Cell-Based Dose Response HTS to Identify Activators of 5'UTR Stem-Loop Driven Prion Protein mRNA Translation in H4 Neuroglioblastoma Cells. [Related pubchem assays: 1829 (Project Summary), 1814 (Primary HTS)]; assay type: functional; conditions: Homo sapiens
[4] = molecular target: T1, Zinc finger protein mex-5 (Caenorhabditis elegans, UniProt Q9XUB2); experiment: potency of MEX-5 RNA-binding blockers – biochemical, C. elegans, fluorescence polarization, dose response (AID 1960)
T1 sequence (Q9XUB2 whole entry): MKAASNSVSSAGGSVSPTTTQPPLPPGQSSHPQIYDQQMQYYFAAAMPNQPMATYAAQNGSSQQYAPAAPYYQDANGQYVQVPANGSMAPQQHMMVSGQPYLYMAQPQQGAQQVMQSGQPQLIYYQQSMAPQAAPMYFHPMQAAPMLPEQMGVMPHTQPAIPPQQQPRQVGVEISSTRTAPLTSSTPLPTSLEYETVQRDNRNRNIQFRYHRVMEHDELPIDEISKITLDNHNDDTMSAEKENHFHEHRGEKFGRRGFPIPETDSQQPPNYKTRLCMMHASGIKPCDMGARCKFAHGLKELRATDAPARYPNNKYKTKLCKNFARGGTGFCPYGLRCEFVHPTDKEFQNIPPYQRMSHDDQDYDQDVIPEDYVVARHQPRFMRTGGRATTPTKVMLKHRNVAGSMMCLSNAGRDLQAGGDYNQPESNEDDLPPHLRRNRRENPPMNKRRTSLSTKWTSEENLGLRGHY

[5] = molecular target: T2, RNA-binding protein pos-1 (Caenorhabditis elegans, UniProt G5EF15); experiment: disruptors of C. elegans POS-1 RNA interaction – biochemical, fluorescence polarization, dose response (AID 1964);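 note: purified POS-1 fused to maltose binding protein made in E. coli; potency of compounds blocking POS-1 binding to fluorescent RNA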
T2 sequence (G5EF15 whole entry): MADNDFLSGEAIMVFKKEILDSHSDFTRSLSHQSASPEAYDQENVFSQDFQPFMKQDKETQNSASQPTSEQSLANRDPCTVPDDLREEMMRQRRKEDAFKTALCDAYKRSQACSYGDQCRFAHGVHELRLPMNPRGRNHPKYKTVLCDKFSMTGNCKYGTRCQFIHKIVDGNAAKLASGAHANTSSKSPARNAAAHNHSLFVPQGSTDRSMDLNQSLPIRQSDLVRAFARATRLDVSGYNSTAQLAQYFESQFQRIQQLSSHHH

[6] = molecular target: T3, Calpain-2 catalytic subunit (Sus scrofa, UniProt P43367); experiment: m-calpain protease blockers, concentration series – biochemical, fluorogenic peptide substrate, dose response (AID 1420); assay type: functional
T3 sequence (P43367 whole entry): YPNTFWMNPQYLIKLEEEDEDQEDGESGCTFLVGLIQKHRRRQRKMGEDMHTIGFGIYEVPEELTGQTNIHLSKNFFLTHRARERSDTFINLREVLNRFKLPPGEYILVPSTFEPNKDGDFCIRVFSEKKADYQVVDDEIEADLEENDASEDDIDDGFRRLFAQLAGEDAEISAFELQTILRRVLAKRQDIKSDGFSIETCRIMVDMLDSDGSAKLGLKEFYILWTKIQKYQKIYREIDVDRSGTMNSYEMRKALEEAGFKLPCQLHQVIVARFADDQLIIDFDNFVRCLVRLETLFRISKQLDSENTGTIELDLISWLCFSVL

[7] = molecular target: Luciferin 4-monooxygenase (Photinus pyralis, UniProt P08659); experiment: inhibition of purified Photinus pyralis luciferase – biochemical, luminescence, dose response (AID 1891)
Sequence of Luciferin 4-monooxygenase (P08659 whole entry): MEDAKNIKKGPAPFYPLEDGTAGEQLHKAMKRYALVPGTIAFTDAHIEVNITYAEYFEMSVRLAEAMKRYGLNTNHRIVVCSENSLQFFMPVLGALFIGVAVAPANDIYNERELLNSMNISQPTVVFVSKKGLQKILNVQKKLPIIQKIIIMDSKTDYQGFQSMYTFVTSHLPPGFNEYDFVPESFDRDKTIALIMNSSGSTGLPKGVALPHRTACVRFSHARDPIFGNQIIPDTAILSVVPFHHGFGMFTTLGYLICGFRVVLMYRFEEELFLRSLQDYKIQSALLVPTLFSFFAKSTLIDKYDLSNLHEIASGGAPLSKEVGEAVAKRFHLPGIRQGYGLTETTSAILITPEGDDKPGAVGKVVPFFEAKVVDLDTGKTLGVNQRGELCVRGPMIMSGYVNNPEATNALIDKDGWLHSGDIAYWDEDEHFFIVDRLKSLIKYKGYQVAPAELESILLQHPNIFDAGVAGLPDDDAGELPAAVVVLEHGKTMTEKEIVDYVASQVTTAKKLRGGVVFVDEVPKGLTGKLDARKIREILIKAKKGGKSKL

[8] = Luminescence Cell-Based Dose Confirmation HTS to Identify Inhibitors of Platelet Dense Granule Release. [Related pubchem assays: 1663 (Primary HTS), 1678 (Summary of Project)]; assay type: functional
[9] = molecular target: Large T antigen (Simian virus 40, UniProt P03070); assay type: functional, Betapolyomavirus macacae;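 note: Confirmatory-stage PubChem screen for compounds that inhibit SV40 T antigen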
Sequence of Large T antigen (P03070 whole entry): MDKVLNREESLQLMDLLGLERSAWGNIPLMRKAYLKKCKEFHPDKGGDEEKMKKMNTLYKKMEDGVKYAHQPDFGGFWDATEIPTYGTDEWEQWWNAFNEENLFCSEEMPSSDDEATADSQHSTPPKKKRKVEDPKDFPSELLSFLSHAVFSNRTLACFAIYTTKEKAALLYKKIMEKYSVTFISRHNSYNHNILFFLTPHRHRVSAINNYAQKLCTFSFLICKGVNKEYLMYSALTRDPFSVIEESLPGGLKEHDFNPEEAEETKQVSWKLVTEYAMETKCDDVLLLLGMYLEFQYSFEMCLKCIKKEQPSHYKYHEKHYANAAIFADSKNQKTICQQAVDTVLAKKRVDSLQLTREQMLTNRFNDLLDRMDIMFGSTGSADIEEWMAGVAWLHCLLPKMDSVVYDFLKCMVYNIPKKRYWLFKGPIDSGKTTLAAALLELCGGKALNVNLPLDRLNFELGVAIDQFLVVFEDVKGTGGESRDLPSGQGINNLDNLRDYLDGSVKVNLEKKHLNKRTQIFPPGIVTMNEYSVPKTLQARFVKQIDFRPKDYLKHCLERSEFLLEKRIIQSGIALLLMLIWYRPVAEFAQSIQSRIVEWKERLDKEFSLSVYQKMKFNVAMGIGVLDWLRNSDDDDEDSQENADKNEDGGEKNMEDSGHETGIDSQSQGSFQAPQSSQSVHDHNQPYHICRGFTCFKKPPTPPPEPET

[10] = molecular target: Cytochrome P450 2C9 (Homo sapiens, UniProt P11712)
Sequence of Cytochrome P450 2C9 (P11712 whole entry): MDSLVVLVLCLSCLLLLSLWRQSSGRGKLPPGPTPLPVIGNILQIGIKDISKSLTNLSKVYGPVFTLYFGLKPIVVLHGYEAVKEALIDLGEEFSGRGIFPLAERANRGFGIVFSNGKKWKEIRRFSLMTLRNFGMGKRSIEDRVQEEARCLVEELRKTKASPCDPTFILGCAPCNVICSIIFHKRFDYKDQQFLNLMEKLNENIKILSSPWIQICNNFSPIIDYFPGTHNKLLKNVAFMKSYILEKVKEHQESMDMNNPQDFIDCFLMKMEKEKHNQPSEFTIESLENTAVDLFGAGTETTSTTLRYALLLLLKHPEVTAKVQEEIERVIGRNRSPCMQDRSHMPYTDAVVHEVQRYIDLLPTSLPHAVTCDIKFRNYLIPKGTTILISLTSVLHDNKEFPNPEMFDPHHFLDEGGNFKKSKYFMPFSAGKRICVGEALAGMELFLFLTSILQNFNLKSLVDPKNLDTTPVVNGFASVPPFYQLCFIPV

[11] = molecular target: T4, Cytochrome P450 1A2 (Homo sapiens, UniProt P05177);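 note: PubChem cytochrome P450 panel assay, CYP1A2 panel member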
T4 sequence (P05177 whole entry): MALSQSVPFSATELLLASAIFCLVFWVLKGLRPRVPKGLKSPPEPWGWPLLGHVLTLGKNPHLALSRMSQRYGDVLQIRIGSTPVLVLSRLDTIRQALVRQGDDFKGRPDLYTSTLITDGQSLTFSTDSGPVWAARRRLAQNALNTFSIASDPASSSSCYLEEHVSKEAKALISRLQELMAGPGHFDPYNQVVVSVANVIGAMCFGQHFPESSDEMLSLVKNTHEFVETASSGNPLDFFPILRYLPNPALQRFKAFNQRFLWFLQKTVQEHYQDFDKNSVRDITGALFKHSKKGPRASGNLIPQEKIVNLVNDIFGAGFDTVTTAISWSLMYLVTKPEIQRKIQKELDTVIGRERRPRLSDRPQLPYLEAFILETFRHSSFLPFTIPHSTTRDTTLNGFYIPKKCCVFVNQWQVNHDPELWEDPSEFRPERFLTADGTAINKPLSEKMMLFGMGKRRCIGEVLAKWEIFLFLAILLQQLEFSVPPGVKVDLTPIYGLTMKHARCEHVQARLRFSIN

[12] = non-specific 3'UTR reporter inhibition in Clone20-Shn3RL – cell-based, Renilla luciferase, cherry-picked, counter-screen for Shn3 inhibitor project, dose response (AID 624133); assay type: functional
[13] = loss of viability in HepG2 cells – cell-based, CellTiter-Glo, cherry-picked, cytotoxicity control for Shn3 inhibitor project, dose response (AID 624134); assay type: functional
[14] = reduction of Shn3 3'UTR-driven luciferase in osteoblasts – cell-based, Clone20 osteoblasts, firefly luciferase, cherry-picked, dose response (AID 624132); assay type: functional;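 note: firefly luciferase luminescence from reporter carrying the Shn3 3'UTR in osteoblasts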
[15] = blockers of HIV-1 envelope-mediated cell-cell fusion – cherry-pick, dose response (AID 652057); assay type: functional, cell-based
[16] = HIV-1 AD8 envelope cell-cell fusion blockers – cherry-pick, dose response (AID 652062); assay type: functional, cell-based;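 note: luciferase signal from cell-cell fusion driven by HIV-1 clade B AD8 Env; potency is for inhibitors of fusion seen as a drop in luminescence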

SMILES: COc1ccc(C(=O)COC(=O)c2cc(O)nc3ccccc23)c(OC)c1
- EC50 [1]: 8.87 µM (active)
- EC50 [2]: 54 µM (active)
- EC50 [3]: 20.7 µM (active)

SMILES: Cc1ccccc1N1C(=O)NC(=O)/C(=C\c2cc(C)n(C)c2C)C1=O
- EC50 [4]: > 300 µM (not active)
- EC50 [5]: > 300 µM (not active)

SMILES: COc1ccccc1/C=C(/C(=O)OCC(=O)Nc1ccccc1C)c1ccccc1
- IC50 [6]: 9.36 µM (not active)

SMILES: COc1cccc(-n2cnc3sc(-c4ccccc4)cc3c2=O)c1
- EC50 [1]: 0.185 µM (active)
- EC50 [2]: 0.124 µM (active)
- EC50 [3]: 0.136 µM (active)

SMILES: Cc1ccc(C(=O)C2CCN(CC(=O)Nc3ccc4c(c3)OCCO4)CC2)cc1
- EC50 [7]: > 112 µM (not active)
- EC50 [8]: > 112 µM (not active)

SMILES: O=C(NC1CCCC1)c1csc2c1CCCC2
- EC50 [7]: > 112 µM (not active)
- EC50 [8]: > 112 µM (not active)

SMILES: COc1ccc(N2CCC(CN=C(S)Nc3ccc(C)cc3C)C2)cc1 (stereo unspecified)
- IC50 [9]: 11 µM (active)

SMILES: COc1ccc(-c2nc3cnc(N4CCOCC4)nc3n(C[C@H]3CCCO3)c2=O)cc1
- AC50 [10]: inconclusive
- AC50 [11]: 5.01 µM (inconclusive)

SMILES: CC(CNC(=O)c1cc(COc2ccc3ncccc3c2)on1)c1ccccc1 (stereo unspecified)
- AC50 [12]: 11.2 µM (active)
- AC50 [13]: 48.9 µM (active)
- AC50 [14]: 3.73 µM (active)

SMILES: CC1CN=C(Nc2ccc(N(C)C)cc2)S1 (stereo unspecified)
- IC50 [9]: 9.27 µM (active)

SMILES: CC1OC(Oc2c(-c3cc(O)c(O)c(O)c3)oc3cc(O)cc(O)c3c2=O)C(O)C(O)C1O (stereo unspecified)
- EC50 [4]: 17.2 µM (active)
- EC50 [5]: 18 µM (active)

SMILES: COc1cc(C2C(C#N)=C(N)OC3=C2C(=O)CC(C)(C)C3)ccc1OCCN1CCOCC1 (stereo unspecified)
- EC50 [4]: > 300 µM (not active)
- EC50 [5]: > 300 µM (not active)

SMILES: CC(=O)C1=C(C)NC(SCC(=O)c2ccccc2)=C(C#N)C1c1ccco1 (stereo unspecified)
- EC50 [1]: 11 µM (active)
- EC50 [2]: 26.5 µM (active)
- EC50 [3]: 19.5 µM (active)

SMILES: NS(=O)(=O)c1cc(Br)c(/N=N\c2ccc(O)c3ncccc23)c(Br)c1
- AC50 [10]: inconclusive
- AC50 [11]: 1.26 µM (inconclusive)

SMILES: CC(=O)NS(=O)(=O)c1ccc(/N=c2\ssc3c2-c2cc(C)ccc2NC3(C)C)cc1
- IC50 [9]: > 100 µM (active)

SMILES: C[C@@H]1CN([C@@H](C)CO)S(=O)(=O)c2ccc(-c3cccc(F)c3)cc2O[C@@H]1CN(C)S(=O)(=O)c1ccc(F)cc1
- AC50 [15]: 1.34 µM (active)
- AC50 [16]: 24.2 µM (active)

SMILES: CN1C(=O)c2cc(NC(=O)c3cscn3)ccc2OC[C@H]2O[C@H](CC(=O)NCc3ccc(Cl)c(Cl)c3)CC[C@H]21
- AC50 [15]: 11.3 µM (active)
- AC50 [16]: 41.8 µM (active)

SMILES: CCOC(=O)c1ccc(/N=c2\scc(C)n2CC)cc1
- IC50 [6]: > 50 µM (not active)

SMILES: O=C(N/N=C/C(Br)=C/c1ccccc1)C1CC1
- EC50 [1]: 18.7 µM (active)
- EC50 [2]: 60.3 µM (active)
- EC50 [3]: 15.8 µM (active)

SMILES: CCOc1cc(/C=N/NC(=O)c2ccncc2)ccc1OS(C)(=O)=O
- IC50 [6]: < 0.4 µM (not active)

SMILES: c1ccc2[nH]c(-c3ccc4c(c3)OCO4)nc2c1
- EC50 [7]: 1.16 µM (active)
- EC50 [8]: 6.52 µM (active)
